# Data from patent US8134015B2, “Compound inhibiting in vivo phosphorous transport and medicine containing the same” (Kyowa Hakko Kirin Co., Ltd., priority 2003, dated 2012).
# What was measured:
# [1] = test system: SD rats; assay: Inhibitory activity against 32P absorption from intestinal tract; format: in vivo; conditions: Rattus norvegicus, oral, dose 400 mg/kg, read-out: Blood radioactivity inhibition, %
# Procedure: Pharmacological Test Example 4
# Inhibitory Activity Against ^32P Absorption from Intestinal Tract
# SD rats (6 to 7 weeks old, obtained from Charles River Japan, Inc. (Japan)) were raised with low-phosphorus diet (phosphorus content 0.1%, manufactured by Oriental Yeast Co., Ltd. (Japan)) for 3 to 4 days and then fasted for about 24 hr for experiment. ^32P was diluted with purified water or liquid feed (CLEA JAPAN INC. (Japan)) to 0.7 to 3.5 MBq/ml and was forcibly orally administered at a dose of 5 ml/kg (administered into the gaster through an oral probe). The compounds or media were forcibly orally administered at a dose of 5 ml/kg (divided dose of twice), 30 min before the administration of ^32P and simultaneously with the administration of ^32P. Blood was collected from caudal artery 30 min, 45 min, or 60 min after ^32P administration, and blood ^32P radioactivity was measured with a liquid scintillation counter. Inhibition of an increase in blood radioactivity was used as a measure of inhibition of phosphate absorption from the intestinal tract.
# The results are expressed in terms of the percentage inhibition determined by the following equation. (Blood radioactivity for group with the administration of medium−Blood radioactivity for group with the administration of compound)/(Blood radioactivity for group with the administration of medium)×100
# t-Test was used for a significant test of the average value difference of blood radioactivity.
# [2] = molecular target: T1, rat NaPi-2b (Rattus norvegicus, UniProt Q9JJ09); assay: Sodium-dependent phosphate uptake of Xenopus oocytes which expressed NaPi-2b (32P); format: cell-based; conditions: Xenopus oocytes expressing rat NaPi-2b, 32P radioactive phosphorus; read-out: IC50 (phosphate uptake inhibitory activity)
# T1 construct: expressed in transfected cells; host or cells: Xenopus oocytes injected with cRNA
# T1 sequence (Q9JJ09 1-695): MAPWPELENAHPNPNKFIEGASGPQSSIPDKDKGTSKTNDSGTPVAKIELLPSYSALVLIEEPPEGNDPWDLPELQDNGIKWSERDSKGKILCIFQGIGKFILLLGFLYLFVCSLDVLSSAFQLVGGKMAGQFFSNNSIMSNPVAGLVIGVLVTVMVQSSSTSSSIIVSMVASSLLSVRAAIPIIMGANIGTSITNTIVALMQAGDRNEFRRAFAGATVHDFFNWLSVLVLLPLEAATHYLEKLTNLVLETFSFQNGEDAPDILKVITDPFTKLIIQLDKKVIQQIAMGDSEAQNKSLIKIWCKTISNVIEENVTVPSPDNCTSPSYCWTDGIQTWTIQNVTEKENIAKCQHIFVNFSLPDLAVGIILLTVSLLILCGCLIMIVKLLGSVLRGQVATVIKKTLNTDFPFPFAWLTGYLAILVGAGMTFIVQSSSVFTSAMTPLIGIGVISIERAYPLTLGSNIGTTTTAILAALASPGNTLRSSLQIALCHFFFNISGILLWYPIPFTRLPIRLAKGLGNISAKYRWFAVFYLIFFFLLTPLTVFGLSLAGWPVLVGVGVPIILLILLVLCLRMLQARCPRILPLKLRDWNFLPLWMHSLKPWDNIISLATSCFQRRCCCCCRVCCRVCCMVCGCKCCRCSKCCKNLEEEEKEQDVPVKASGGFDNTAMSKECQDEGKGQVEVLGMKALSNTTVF
# Outline: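 Rat small-intestine NaPi-2b cRNA injected into Xenopus oocytes, expressed for 2 days. Sodium-dependent phosphate uptake measured with 32P; % inhibition at 300 and 100 μM taken from the same inhibition curve.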
# [3] = molecular target: T2, human NaPi-2a (Homo sapiens, UniProt Q06495); assay: Sodium-dependent phosphate uptake of Xenopus oocytes which expressed NaPi-2a (32P); format: cell-based; conditions: phosphate uptake, Xenopus oocytes expressing human NaPi-2a; five concentration levels
# T2 construct: expressed in transfected cells
# T2 sequence (Q06495 1-639): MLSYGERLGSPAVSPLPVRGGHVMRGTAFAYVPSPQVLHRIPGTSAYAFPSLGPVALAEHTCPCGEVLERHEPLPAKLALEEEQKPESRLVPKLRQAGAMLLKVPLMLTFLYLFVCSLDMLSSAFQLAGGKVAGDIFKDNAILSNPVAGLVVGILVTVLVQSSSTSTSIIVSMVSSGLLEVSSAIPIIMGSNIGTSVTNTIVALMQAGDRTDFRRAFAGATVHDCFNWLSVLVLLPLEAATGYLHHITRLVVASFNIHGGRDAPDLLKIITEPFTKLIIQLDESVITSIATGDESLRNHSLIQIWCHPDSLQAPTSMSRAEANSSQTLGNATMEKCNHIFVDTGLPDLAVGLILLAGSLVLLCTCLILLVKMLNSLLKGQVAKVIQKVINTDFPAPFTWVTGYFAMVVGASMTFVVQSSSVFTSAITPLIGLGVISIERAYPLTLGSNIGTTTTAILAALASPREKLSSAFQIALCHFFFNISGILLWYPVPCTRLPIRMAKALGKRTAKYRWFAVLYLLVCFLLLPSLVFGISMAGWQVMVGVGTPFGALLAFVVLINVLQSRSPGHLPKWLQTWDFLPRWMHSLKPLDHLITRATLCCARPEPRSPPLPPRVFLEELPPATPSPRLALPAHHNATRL
# From the text: Experiment of Sodium-Dependent Phosphate Uptake of Xenopus oocytes which Expressed NaPi-2a
# In the test, a group with the addition of choline chloride (Choline Cl) was used as a negative control for nonspecific uptake, and PFA (phosphonoformic acid) was used as a positive control for phosphate transport inhibition.
SMILES,inhibition in vivo at 400 mg/kg [1] [%],IC50 [2] [µM],IC50 [3] [µM]
"COc1ccc(C(=O)Nc2ccc(Cl)cc2C(=O)N/N=C/c2ccc(Cl)c(C(F)(F)F)c2)cc1OC [Compound 88, N-[4-Chloro-2-(4-chloro-3-trifluoromethyl-benzylidene-hydrazinocarbonyl)-phenyl]-3,4-dimethoxy-benzamide]",29.1,0.22,
"Cc1ccc(/C=N/NC(=O)c2cc(N3CCCCC3)ccc2NC(=O)c2cccc(CSCC(O)CO)c2)cc1C (stereo not drawn) [Compound 899, 3-(2,3-Dihydroxy-propylsulfanylmethyl)-N-[2-(3,4-dimethyl-benzylidene-hydrazinocarbonyl)-4-piperidin-1-yl-phenyl]-benzamide]",,< 1,< 1
"Cc1ccc(/C=N/NC(=O)c2cc(N3CCCCC3)ccc2NC(=O)c2cccc(CSCC(O)CO)c2)cc1 (stereo not drawn) [Compound 900, 3-(2,3-Dihydroxy-propylsulfanylmethyl)-N-[2-(4-methyl-benzylidene-hydrazinocarbonyl)-4-piperidin-1-yl-phenyl]-benzamide]",,< 1,2.53
"O=C(Nc1ccc(N2CCCCC2)cc1C(=O)N/N=C/c1ccc(F)cc1)c1cccc(CSCC(O)CO)c1 (stereo not drawn) [Compound 901, 3-(2,3-Dihydroxy-propylsulfanylmethyl)-N-[2-(4-fluoro-benzylidene-hydrazinocarbonyl)-4-piperidin-1-yl-phenyl]-benzamide]",,< 1,< 1
"O=C(Nc1ccc(N2CCCCC2)cc1C(=O)N/N=C/c1cccc(F)c1)c1cccc(CSCC(O)CO)c1 (stereo not drawn) [Compound 902, 3-(2,3-Dihydroxy-propylsulfanylmethyl)-N-[2-(3-fluoro-benzylidene-hydrazinocarbonyl)-4-piperidin-1-yl-phenyl]-benzamide]",,< 1,< 1
"O=C(Nc1ccc(N2CCCCC2)cc1C(=O)N/N=C/c1ccc(Cl)c(C(F)(F)F)c1)c1cccc(CSCC(O)CO)c1 (stereo not drawn) [Compound 903, N-[2-(4-Chloro-3-trifluoromethyl-benzylidene-hydrazinocarbonyl)-4-piperidin-1-yl-phenyl]-3-(2,3-dihydroxy-propyl-sulfanylmethyl)-benzamide]",,< 1,< 1
"COc1ccc(/C=N/NC(=O)c2cc(N3CCCCC3)ccc2NC(=O)c2cccc(CSCC(O)CO)c2)cc1 (stereo not drawn) [Compound 904, 3-(2,3-Dihydroxy-propylsulfanylmethyl)-N-[2-(4-methoxy-benzylidene-hydrazinocarbonyl)-4-piperidin-1-yl-phenyl]-benzamide]",,1.71,1.69
"O=C(Nc1ccc(N2CCCCC2)cc1C(=O)N/N=C/c1ccc(Cl)c(C(F)(F)F)c1)c1cccc(CNCCN(CCO)CCO)c1 [Compound 914, 3-({2-[Bis-(2-hydroxy-ethyl)-amino]-ethylamino}-methyl)-N-[2-(4-chloro-3-trifluoromethyl-benzylidene-hydrazinocarbonyl)-4-piperidin-1-yl-phenyl]-benzamide]",,1.75,3.13
"COc1ccc(C(=O)Nc2ccc(N3CCCCC3)cc2C(=O)N/N=C/c2ccc(C)c(C)c2)cc1OC [Compound 935, N-[2-(3,4-Dimethyl-benzylidene-hydrazinocarbonyl)-4-piperidin-1-yl-phenyl]-3,4-dimethoxy-benzamide]",,0.17,9.68
"COc1ccc(C(=O)Nc2ccc(N3CCCCC3)cc2C(=O)N/N=C/c2cccnc2)cc1OC [Compound 936, 3,4-Dimethoxy-N-[4-piperidin-1-yl-2-(pyridin-3-ylmethylene-hydrazinocarbonyl)-phenyl]-benzamide]",,5.59,30
"Cc1ccc(/C=N/NC(=O)c2cc(F)ccc2NC(=O)c2cccc(CN(CC(C)O)CC(C)O)c2)cc1C (stereo not drawn) [Compound 985, 3-{[Bis-(2-hydroxy-propyl)-amino]-methyl}-N-[2-(3,4-dimethyl-benzylidene-hydrazinocarbonyl)-4-fluoro-phenyl]-benzamide]",,< 3,< 3
"CC(O)CN(Cc1cccc(C(=O)Nc2ccc(F)cc2C(=O)N/N=C/c2cccc(F)c2)c1)CC(C)O (stereo not drawn) [Compound 987, 3-{[Bis-(2-hydroxy-propyl)-amino]-methyl}-N-[4-fluoro-2-(3-fluoro-benzylidene-hydrazinocarbonyl)-phenyl]-benzamide]",,< 3,16.3
"Cc1ccc(/C=N/NC(=O)c2cc(F)ccc2NC(=O)c2cccc(CN(CC(C)O)CC(C)O)c2)cc1 (stereo not drawn) [Compound 989, 3-{[Bis-(2-hydroxy-propyl)-amino]-methyl}-N-[4-fluoro-2-(4-methyl-benzylidene-hydrazinocarbonyl)-phenyl]-benzamide]",,< 3,7.84
"COc1ccc(/C=N/NC(=O)c2cc(F)ccc2NC(=O)c2cccc(CN(CC(C)O)CC(C)O)c2)cc1 (stereo not drawn) [Compound 990, 3-{[Bis-(2-hydroxy-propyl)-amino]-methyl}-N-[4-fluoro-2-(4-methoxy-benzylidene-hydrazinocarbonyl)-phenyl]-benzamide]",,< 3,7.14
"Cc1ccc(/C=N/NC(=O)c2cc(Cl)ccc2NC(=O)c2cccc(CSCC(O)CO)c2)cc1 (stereo not drawn) [Compound 1008, N-[4-Chloro-2-(4-methyl-benzylidene-hydrazinocarbonyl)-phenyl]-3-(2,3-dihydroxy-propylsulfanylmethyl)-benzamide]",,0.3,2.3
"Cc1ccc(/C=N/NC(=O)c2cc(Cl)ccc2NC(=O)c2cccc(CSCC(O)CO)c2)cc1C (stereo not drawn) [Compound 1009, N-[4-Chloro-2-(3,4-dimethyl-benzylidene-hydrazinocarbonyl)-phenyl]-3-(2,3-dihydroxy-propylsulfanylmethyl)-benzamide]",,0.1,1.41
"COc1ccc(NC(=O)c2cccc(CSCC(O)CO)c2)c(C(=O)N/N=C/c2ccc(Cl)c(C(F)(F)F)c2)c1 (stereo not drawn) [Compound 1020, N-[2-(4-Chloro-3-trifluoromethyl-benzylidene-hydrazinocarbonyl)-4-methoxy-phenyl]-3-(2,3-dihydroxy-propylsulfanyl-methyl)-benzamide]",,0.39,2.25
"CCN(CC)CCN(C)Cc1cccc(C(=O)Nc2ccc(OCCOC)cc2C(=O)N/N=C/c2ccc(Cl)c(C(F)(F)F)c2)c1 [Compound 1027, N-[2-(4-Chloro-3-trifluoromethyl-benzylidene-hydrazinocarbonyl)-4-(2-methoxy-ethoxy)-phenyl]-3-{[(2-diethylamino-ethyl)-methyl-amino]-methyl}-benzamide]",,1.2,1.58
